Patent US20080090805A1, “CB-1 MODULATING COMPOUNDS AND THEIR USE” (ACADIA PHARMACEUTICALS INC., priority 2005, published 2008)

How the values were obtained:
[1] = Clearance study, liver microsomes (human); details: pH 7.4
[2] = Clearance study, liver microsomes (rats); details: rat, pH 7.4

SMILES | microsomal CLint at 1 μM [1] [µL/min/mg] | microsomal CLint at 1 μM [2] [µL/min/mg]
CCCCNC(=O)c1ccc2c(c1)N=C(c1ccc(Cl)s1)c1cc(Cl)ccc1S2 [drawing 1678] | 22 | 63
CC(C)CNC(=O)c1ccc2c(c1)N=C(c1ccc(Cl)s1)c1ccc(Cl)cc1S2 [drawing 1679] | 5 | 56
CCCCNC(=O)c1ccc2c(c1)N=C(c1cccc(Cl)c1)c1cc(F)ccc1S2 [drawing 1682] | 16 | 63
CCCCNC(=O)c1ccc2c(c1)N=C(c1ccc(Cl)cc1)c1cc(Cl)ccc1S2 [drawing 1688] | 13 | 52
Cc1cccc(C2=Nc3cc(C(=O)NCC(C)C)ccc3Sc3ccccc32)n1 [drawing 1692] | 35 | 204
CCCCNC(=O)c1ccc2c(c1)N=C(c1ccc(Cl)s1)c1ccc(Cl)cc1S2 [drawing 1694] | 15 | 55
O=C(NNCC(F)(F)F)c1ccc2c(c1)N=C(c1ccc(Cl)cc1)c1ccccc1S2 [drawing 1696] | 21 | 39
Cc1ccc(CNC(=O)c2ccc3c(c2)N=C(c2ccc(Cl)s2)c2ccccc2S3)o1 [drawing 1697] | 30 | 124
CCN(CCNC(=O)c1ccc2c(c1)N=C(c1ccc(Cl)cc1)c1ccccc1S2)c1ccccc1 [drawing 1698] | 157 | 210
O=C(NC1CCC(F)(F)CC1)c1ccc2c(c1)N=C(c1ccc(Cl)s1)c1ccccc1S2 [drawing 1699] | 20 | 158
Cc1ccsc1C1=Nc2cc(C(=O)NCCCC(F)(F)F)ccc2Sc2ccccc21 [drawing 1701] | 379 | 297
CCCCNC(=O)c1ccc2c(c1)N=C(c1ccc(Cl)cc1)c1cc(F)ccc1S2 [drawing 1702] | 12 | 74
O=C(NCCCC(F)(F)F)c1ccc2c(c1)N=C(c1ccc(Cl)cc1)c1ccccc1S2 [drawing 1703] | 13 | 86
Cc1ccc(CNC(=O)c2ccc3c(c2)N=C(c2cccc(Cl)c2)c2ccccc2S3)o1 [drawing 1705] | 37 | 147
Cc1csc(CNC(=O)c2ccc3c(c2)N=C(c2ccc(Cl)s2)c2ccccc2S3)c1 [drawing 1707] | 27 | 90
Cc1csc(CNC(=O)c2ccc3c(c2)N=C(c2cccc(F)c2)c2ccccc2S3)c1 [drawing 1709] | 42 | 160
CCCCNC(=O)c1ccc2c(c1)N=C(c1ccc(Cl)s1)c1cc(F)ccc1S2 [drawing 1710] | 41 | 111
Cc1ccc(CNC(=O)c2ccc3c(c2)N=C(c2ccc(F)cc2)c2ccccc2S3)o1 [drawing 1711] | 39 | 258
O=C(NCc1cccc(Cl)c1)c1ccc2c(c1)N=C(N1CCC(F)CC1)c1ccccc1S2 [drawing 1714] | 96 | 477
CC(CNC(=O)c1ccc2c(c1)N=C(c1ccc(Cl)cc1)c1cc(F)ccc1S2)c1ccccc1 (stereo not drawn) [drawing 1716] | 39 | 165

SMILES | microsomal CLint at 1 μM [1] [µL/min/mg] | microsomal CLint at 1 μM [2] [µL/min/mg]
CC(C)CNC(=O)c1ccc2c(c1)N=C(c1ccc(Cl)cc1)c1ccc(Cl)cc1S2 [drawing 1718] | 4 | 37
O=C(NCCCC(F)(F)F)c1ccc2c(c1)N=C(c1cccc(F)c1)c1ccccc1S2 [drawing 1719] | 24 | 182
O=C(NCCC(F)(F)F)c1ccc2c(c1)N=C(c1cccc(Cl)c1)c1ccccc1S2 [drawing 1721] | 18 | 40
CCCCNC(=O)c1cnc2c(n1)N=C(c1ccccc1)c1ccccc1S2 [drawing 1722] | 38 | 44
CCOC(=O)N1CCC(NC(=O)c2ccc3c(c2)N=C(c2ccc(Cl)cc2)c2ccccc2S3)CC1 [drawing 1726] | 88 | 89
Cc1csc(CNC(=O)c2ccc3c(c2)N=C(c2cccc(C)n2)c2ccccc2S3)c1 [drawing 1727] | 113 | 725
O=C(NCc1cccc(Cl)c1)c1ccc2c(c1)N=C(c1cccc(Cl)c1)c1ccccc1S2 [drawing 1729] | 36 | 74
O=C(NCCc1ccc(Cl)cc1)c1ccc2c(c1)N=C(N1CCC(F)CC1)c1ccccc1S2 [drawing 1734] | 476 | 670
O=C(NCCc1ccc(Cl)cc1)c1ccc2c(c1)N=C(C1CCCCC1)c1ccccc1S2 [drawing 1737] | 138 | 230
O=C(NCc1ccc(F)cc1)c1ccc2c(c1)N=C(N1CCCCC1)c1ccccc1S2 [drawing 1738] | 255 | 735
O=C(NCCc1ccc(Cl)cc1)c1ccc2c(c1)N=C(c1cccc(Cl)c1)c1ccccc1S2 [drawing 1739] | 62 | 83
CC(CNC(=O)c1ccc2c(c1)N=C(c1ccc(Cl)cc1)c1ccccc1S2)c1ccccc1 (stereo not drawn) [drawing 1743] | 62 | 179
O=C(NCCc1ccccc1)c1ccc2c(c1)N=C(c1ccc(Cl)cc1)c1ccccc1S2 [drawing 1745] | 62 | 144
CC(C)CNC(=O)c1ccc2c(c1)N=C(c1ccc(Cl)cn1)c1ccc(F)cc1S2 [drawing 1746] | 25 | 175
CCN(CCNC(=O)c1ccc2c(c1)N=C(C1CCCCC1)c1ccccc1S2)c1ccccc1 [drawing 1747] | 249 | 379
CCCCNC(=O)c1ccc2c(c1)N=C(c1ccc(Cl)cn1)c1cc(F)ccc1S2 [drawing 1748] | 57 | 131
CCN(CCNC(=O)c1ccc2c(c1)N=C(c1ccc(F)cc1)c1ccccc1S2)c1ccccc1 [drawing 1749] | 278 | 484
CCCCNC(=O)c1ccc2c(c1)N=C(c1cccc(Cl)c1)c1cc(Cl)ccc1S2 [drawing 1750] | 13 | 52
CC(C)CNC(=O)c1ccc2c(c1)N=C(c1ccsc1)c1ccccc1S2 [drawing 1753] | 546 | 427
CC(CNC(=O)c1ccc2c(c1)N=C(c1cccc(Cl)c1)c1ccccc1S2)c1ccccc1 (stereo not drawn) [drawing 1755] | 56 | 174

SMILES | microsomal CLint at 1 μM [1] [µL/min/mg] | microsomal CLint at 1 μM [2] [µL/min/mg]
O=C(NCCCc1ccccc1)c1ccc2c(c1)N=C(c1cccc(Cl)c1)c1ccccc1S2 [drawing 1765] | 72 | 163
O=C(NCCc1cccc(Cl)c1)c1ccc2c(c1)N=C(c1ccc(Cl)cc1)c1ccccc1S2 [drawing 1766] | 56 | 116
O=C(NCCc1cccc(Cl)c1)c1ccc2c(c1)N=C(c1ccc(F)cc1)c1ccccc1S2 [drawing 1768] | 37 | 126
CC(CNC(=O)c1ccc2c(c1)N=C(C1CCCCC1)c1ccccc1S2)c1ccccc1 (stereo not drawn) [drawing 1769] | 125 | 267
O=C(NCCc1ccccc1)c1ccc2c(c1)N=C(c1ccc(F)cc1)c1ccccc1S2 [drawing 1773] | 109 | 274
O=C(NCc1cccc(Cl)c1)c1ccc2c(c1)N=C(N1CCCCC1)c1ccccc1[S+]2[O-] (stereo not drawn) [drawing 1774] | 90 | 416
O=C(NCc1ccc(F)cc1)c1ccc2c(c1)N=C(c1ccc(Cl)cc1)c1ccccc1S2(=O)=O [drawing 1776] | 13 | 17
O=C(NCc1cccc(Cl)c1)c1ccc2c(c1)N=C(C1CCCCC1)c1ccccc1S2 [drawing 1777] | 70 | 458
CCCCNC(=O)c1ccc2c(c1)N=C(c1ccc(Cl)cn1)c1ccc(F)cc1S2 [drawing 1778] | 29 | 227
O=C(NCc1ccccc1)c1ccc2c(c1)N=C(C1CCCCC1)c1ccccc1S2 [drawing 1779] | 81 | 351
O=C(NCc1ccccc1Cl)c1ccc2c(c1)N=C(c1ccccc1)c1ccccc1S2 [drawing 1780] | 57 | 178
O=C(NCCc1ccc(Cl)cc1)c1ccc2c(c1)N=C(N1CCCCC1)c1ccccc1S2 [drawing 1783] | 434 | 506
COc1ccc(C2=Nc3cc(C(=O)NCCC(C)C)ccc3Sc3ccccc32)cc1 [drawing 1785] | 123 | 177
O=C(NCc1ccc(F)cc1)c1ccc2c(c1)N=C(c1ccccc1)c1ccccc1S2 [drawing 1787] | 73 | 242
O=C(NCc1ccccc1Br)c1ccc2c(c1)N=C(c1ccc(Cl)cc1)c1ccccc1S2 [drawing 1788] | 10 | 36
Cc1cccc(C2=Nc3cc(C(=O)NCc4ccc(C)o4)ccc3Sc3ccccc32)n1 [drawing 1789] | 114 | 632
O=C(NCc1cccc(Cl)c1)c1ccc2c(c1)N=C(c1ccc(F)cc1)c1ccccc1[S+]2[O-] (stereo not drawn) [drawing 1790] | 24 | 76
O=C(NN1CCCCC1)c1ccc2c(c1)N=C(N1CCCCC1)c1ccccc1S2 [drawing 1792] | 54 | 536
CC(C)CNC(=O)c1ccc2c(c1)N=C(c1ccc(Cl)s1)c1ccc(F)cc1S2 [drawing 1793] | 32 | 49
O=C(NCc1ccc(Cl)cc1Cl)c1ccc2c(c1)N=C(c1ccc(Cl)cc1)c1ccccc1S2 [drawing 1796] | 1 | 5
